Read-outs that look alike come from different tables or passages of the source. Blank lines part the entries; values can stand above or below the molecule they belong to.
Molecular target: human telomerase (Homo sapiens, UniProt O14746)
Experiment: Telomerase inhibition, primer extension assay in HeLa cell extract
Assay type: biochemical
Settings: for inhibition at 25 µM: read-out: % Inhibition of telomerase
[1] = Table 15, concentration fixed at 25 μM

human telomerase, sequence (O14746 whole entry): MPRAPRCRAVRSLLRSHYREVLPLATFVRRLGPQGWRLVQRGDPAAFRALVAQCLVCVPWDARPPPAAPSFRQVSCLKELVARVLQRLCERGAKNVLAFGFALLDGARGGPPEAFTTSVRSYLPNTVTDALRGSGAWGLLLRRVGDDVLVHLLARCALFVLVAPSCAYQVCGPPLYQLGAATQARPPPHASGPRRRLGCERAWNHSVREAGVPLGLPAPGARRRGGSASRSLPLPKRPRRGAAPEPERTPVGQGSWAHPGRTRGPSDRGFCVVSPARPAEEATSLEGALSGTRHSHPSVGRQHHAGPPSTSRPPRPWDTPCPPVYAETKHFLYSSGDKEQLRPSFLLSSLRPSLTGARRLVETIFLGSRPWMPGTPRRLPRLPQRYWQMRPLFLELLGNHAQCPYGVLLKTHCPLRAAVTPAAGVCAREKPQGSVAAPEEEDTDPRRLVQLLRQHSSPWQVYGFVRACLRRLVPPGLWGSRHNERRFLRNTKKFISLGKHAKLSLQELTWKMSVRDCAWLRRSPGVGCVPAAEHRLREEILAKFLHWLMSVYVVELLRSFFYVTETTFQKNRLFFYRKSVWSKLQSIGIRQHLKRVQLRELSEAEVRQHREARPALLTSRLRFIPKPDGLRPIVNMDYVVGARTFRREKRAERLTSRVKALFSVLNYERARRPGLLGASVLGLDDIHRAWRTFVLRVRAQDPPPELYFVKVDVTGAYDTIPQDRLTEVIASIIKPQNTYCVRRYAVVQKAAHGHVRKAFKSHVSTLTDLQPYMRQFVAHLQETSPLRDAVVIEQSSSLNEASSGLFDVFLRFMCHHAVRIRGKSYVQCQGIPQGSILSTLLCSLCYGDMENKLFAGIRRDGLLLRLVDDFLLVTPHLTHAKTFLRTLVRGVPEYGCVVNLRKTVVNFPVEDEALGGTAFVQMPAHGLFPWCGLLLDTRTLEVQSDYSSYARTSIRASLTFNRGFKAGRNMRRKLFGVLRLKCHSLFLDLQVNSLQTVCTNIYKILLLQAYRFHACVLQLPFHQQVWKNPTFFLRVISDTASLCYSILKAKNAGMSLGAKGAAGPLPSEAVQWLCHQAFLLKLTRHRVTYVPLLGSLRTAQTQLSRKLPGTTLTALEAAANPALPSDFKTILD

Molecule: 5,10-di-(N-methyl-3-quinolyl)-15,20-di-(N-methyl-3-pyridyl)porphine chloride [Compound D12]
% Inhibition of telomerase (25 μM, Table 6): 80%

Molecule: C[n+]1cccc(-c2c3nc(c(-c4ccccc4)c4ccc([nH]4)c(-c4ccc[n+](C)c4)c4nc(c(-c5ccccc5)c5ccc2[nH]5)C=C4)C=C3)c1 [Compound B9, 5,15-Diphenyl-10,20-di(N-methyl-3-pyridyl)porphyrin chloride]
inhibition at 25 µM (25 μM, Table 7): 18%

Molecule: C[N+](C)(C)c1ccc(-c2c3nc(c(-c4ccc([N+](C)(C)C)cc4)c4ccc([nH]4)c(-c4ccc([N+](C)(C)C)cc4)c4nc(c(-c5ccc([N+](C)(C)C)cc5)c5ccc2[nH]5)C=C4)C=C3)cc1 [TAP (B23), tetra(N,N,N-trimethyl-4-aminophenyl)porphyrin chloride]
inhibition at 25 µM (25 μM, Table 5): 6% | inhibition at 25 µM (25 μM, Table 13): 18%

Molecule: Copper(II)tetraaminophthalocyanine [Compound B14]
telomerase inhibition in words: active

Molecule: C[n+]1ccc(-c2c3nc(c(-c4cc[n+](C)cc4)c4ccc([nH]4)c(-c4cc[n+](C)cc4)c4nc(c(-c5ccccc5)c5ccc2[nH]5)C=C4)C=C3)cc1 [Compound B6, Tri(N-methyl-4-pyridyl)phenylporphyrin chloride]
inhibition at 25 µM (25 μM, Table 7): 15%

Molecule: C[n+]1ccccc1-c1c2nc(c(-c3ccccc3)c3ccc([nH]3)c(-c3ccccc3)c3nc(c(-c4ccccc4)c4ccc1[nH]4)C=C3)C=C2 [Compound B26]
inhibition at 25 µM (25 μM, Table 7): 0%

Molecule: Ethylenediamine protoporphyrin-IX [Compound B19]
% Inhibition of telomerase (25 μM, Table 5): 0%

Molecule: Nc1ccc(-c2c3nc(c(-c4ccc(N)cc4)c4ccc([nH]4)c(-c4ccc(N)cc4)c4nc(c(-c5ccc(N)cc5)c5ccc2[nH]5)C=C4)C=C3)cc1 [Compound B1, Tetra-(4-aminophenyl)porphyrin]
inhibition at 25 µM (25 μM, Table 13): 50%

Molecule: C[n+]1ccccc1-c1c2nc(c(-c3cccc[n+]3C)c3ccc([nH]3)c(-c3cccc[n+]3C)c3nc(c(-c4cccc[n+]4C)c4ccc1[nH]4)C=C3)C=C2 [Compound B8, Tetra(N-methyl-2-pyridyl)porphyrin chloride]
inhibition at 25 µM (25 μM, Table 5): 0%

More lines, now with the values ahead:

inhibition at 25 µM [1]: 23%
Molecule: COC(=O)CCC1=C(C)c2cc3[nH]c(cc4nc(cc5[nH]c(cc1n2)c(C)c5CCC(=O)OC)C(C)=C4C)c(C)c3C [Compound H30]

inhibition at 25 µM [1]: 0%
Molecule: CCC1=C(C)c2cc3[nH]c(cc4nc(cc5[nH]c(cc1n2)c(C)c5CC)C(C)=C4)c(C)c3CC(=O)OC [Compound H32]

inhibition at 25 µM [1]: 4%
Molecule: O=C(O)CCC1=C(CC(=O)O)c2cc3[nH]c(cc4nc(cc5[nH]c(cc1n2)c(CCC(=O)O)c5CC(=O)O)C(CC(=O)O)=C4CCC(=O)O)c(CCC(=O)O)c3CC(=O)O [Compound H24]

inhibition at 25 µM [1]: 0%
Molecule: COC(=O)CCC1=C(C)c2cc3[nH]c(cc4nc(cc5[nH]c(cc1n2)c(CCC(=O)OC)c5C)C(C)=C4Br)c(C)c3Br [Compound H10]

inhibition at 25 µM [1]: 19%
Molecule: COC(=O)CCC1=C(CC(=O)OC)c2cc3[nH]c(cc4nc(cc5[nH]c(cc1n2)c(CCC(=O)OC)c5CC(=O)OC)C(CC(=O)OC)=C4CCC(=O)OC)c(CCC(=O)OC)c3CC(=O)OC [Compound H22]

inhibition at 25 µM [1]: 17%
Molecule: C=CC1=C(C)c2cc3[nH]c(cc4nc(cc5[nH]c(cc1n2)c(C)c5C=C)C(C)=C4CCC(=O)O)c(CCC(=O)O)c3C [Compound H18]

inhibition at 25 µM [1]: 0%
Molecule: CCC1=C(C)c2cc3[nH]c(cc4nc(cc5[nH]c(cc1n2)c(C)c5CC)C(C)=C4CCC(=O)OC)c(CCC(=O)OC)c3C [Compound H16]

inhibition at 25 µM [1]: 24%
Molecule: C=CC1=C(C)c2cc3[nH]c(cc4nc(cc5[nH]c(cc1n2)c(C)c5C=C)C(C)=C4CCCO)c(CCCO)c3C [Compound H27]

inhibition at 25 µM (25 μM, Table 9): 50%
Molecule: COc1ccc(-c2c3nc(c(-c4ccc(OC)c(O)c4)c4ccc([nH]4)c(-c4ccc(OC)c(O)c4)c4nc(c(-c5ccc(OC)c(O)c5)c5ccc2[nH]5)C=C4)C=C3)cc1O [Compound D17, 5,10,15,20-tetra-(4-methoxy-3-hydroxyphenyl)porphine]

inhibition at 25 µM [1]: 12%
Molecule: CCC1=C(CC)c2cc3[nH]c(cc4nc(cc5[nH]c(cc1n2)c(CC)c5CC)C(CC)=C4CC)c(CC)c3CC [Compound H1]

— patent US6087493A, “Porphyrin compounds as telomerase inhibitors” (Regents of the University of Texas System, priority 1998, dated 2000)
